In patent US20240382509A1, “Cannabinoids C- and O-glycosides possessing anti-proliferative and anti-metastatic properties and process for preparation thereof” (Council of Scientific and Industrial Research, priority 2021, published 2024):

Experiments:
[1] = tested on: human colorectal adenocarcinoma cell line (HT-29); assay: MTT cell viability assay, HT-29; format: cell-based; details: Homo sapiens, HT-29, 48 h, read-out: Cytotoxicity (IC50) HT-29, MTT, 48 h; human colorectal adenocarcinoma cell line
Experimental: (§1) Cell viability assay: The cell viability was determined by the standard MTT assay method. Briefly, Panc-1, HCT-116, A549, PC3, MIAPaca-2, HT-29, MDA-MB-231, MCF7 cells, and fR2cells were seeded in 96 well tissue culture plates (Nunc) at a density of 4×10^3 cells per well and treated with varying concentrations of the test compounds in triplicates. DMSO was taken as a vehicle, and its final concentration was maintained at 0.2% in the culture medium. Doxorubicin was employed as a positive control. After 44 h of incubation, MTT dye solution was added into the medium, and cells were incubated for another 4 h at 37° C. in 5% CO2. The amount of colored formazan derivatives formed was measured by taking optical density (OD) using a microplate reader (TECAN, Infinite M200 Pro) at 570 nm, and the percentage of cell viability was calculated. The IC50 values were calculated using GraphPad Prism software (Version 5.0).

MIAPaCa-2 cells [2] = assay: In-situ gelatin degradation assay, MIAPaCa-2; format: cell-based, human; details: MIAPaCa-2, from 0.5 μM onwards, 36 h
Experimental: (§2) Matrix gelatin degradation assay. In-situ gelatin degradation assay is performed to detect the formation of migratory structures (invadopodia & filopodia). Briefly, glass coverslips were coated with gelatin tagged with FITC, and the coated coverslips were dipped into 70% ethanol and immersed into a 6 well plate filled with RPMI and the coverslips were kept in a CO2 incubator for 1-2 h for preconditioning. Later on, both MIAPaCa-2 and MDA-MB-231 cells were seeded onto the coverslips and kept overnight for attachment. Treatment of the compound 2a (0.5, 1.5, 3 & 5 μM) was given on the next day and continued for 36 h. Upon termination, the coverslips were washed with ice-cold PBS, and then it was fixed in 4% paraformaldehyde for 15 min and then washed with PBS. Finally, the coverslips were mounted using mounting media consist of glycerol, and the edges were sealed with nail polish. After drying, the slides were observed under a fluorescence microscope to assess a degraded area's presence. The fluorescent images were captured, and the images were further processed in Image J software (Version 1.50i) to quantify the degraded area in each field.
Now this particular derivative was further analysed for its ability to inhibit the molecular signatures of EMT. […]

MDA-MB-231 cells [3] = assay: In-situ gelatin degradation assay, MDA-MB-231; format: cell-based, human; details: MDA-MB-231, 1.5 μM to 5 μM
Experimental: as §2
(§3) Now to study its anti-migratory and anti-metastatic role in another highly metastatic cancer cells of breast origin (MDA-MB 231) the IC50 value was determined by performing MTT assay (FIG. 6a).

MDA-MB-231 cells [4] = assay: Matrigel invasion assay, MDA-MB-231; format: cell-based, human; details: MDA-MB231, 0.5 μM to 5 μM
Experimental: (§4) Matrigel invasion assay: MIAPaCa-2 and MDA-MB-231 cells (1×10^6) were seeded onto matrigel coated inserts and treated with compound 2a (0.5, 1.5, 3 & 5 μM) for 36 h in 5% CO2 incubator at 37° C. The upper chamber is filled with serum-free media, and the lower half consists of 10% FBS supplemented media, thus creating a gradient of chemoattractant that facilitates the migration of cells. Upon termination, the inserts were washed with PBS, and the non-migratory cells were removed from the upper chamber by using a cotton plug. Further, the cells were fixed with methanol and stained later with 0.2% crystal violet. After drying, the inserts were observed under an inverted microscope at 20× magnification, and images were taken.
as §3

γH2AX in HCT-116 cells = assay: γH2AX immunofluorescence after combinatorial treatment of 5FU and compound 2a; format: cell-based; details: HCT-116, 750 nM 5FU+3 μM 2a
Experimental: Assessment of DNA damage by combinatorial treatment of 5FU and Compound 2a. An immunofluorescence study was performed to assess the expression of γH2AX, which tends to form a complex with damaged DNA resulting in the formation of a beads-like structure when tagged with a fluorescent labelled antibody. Briefly, HCT-116 cells were seeded in 8 well chamber slide and treated with vehicle, 750 nM 5FU+3 μM 2a for 36, 48, and 60 h and 750 nM 5FU for 60 h. Following termination of drug treatment, the cells were washed with ice-cold PBS and fixed with 4% paraformaldehyde for 10 min. Subsequently, permeabilization was done by incubating the cells with 0.1% Triton X-100. Before incubating with primary antibody (anti-γH2AX mouse monoclonal antibody), the cells were blocked with 5% BSA for 1-2 h; consequently, the cells were incubated with primary antibody (1:200) for overnight at 4° C. Subsequently, the cells were washed with ice-cold PBS for five times and further incubated with secondary anti-mouse antibody (1:500) for 30 min. The slides, after thorough washing with PBS, were mounted in DAPI containing mounting media. The images were captured in Floid imaging station at 20× optical magnification, and digital zooming was done up to […].
The effect of the compound 2a in combination with DNA damaging drug 5-Fluorouracil in colon adenocarcinoma cells was studied. […]

MDA-MB-231 cells [5] = assay: MTT cell viability assay, MDA-MB-231; format: cell-based; details: Homo sapiens, aggressive breast cancer cell line of mesenchymal origin
Experimental: as §1, §3

HCT-116 cells = assay: Chromosome isolation and staining (chromosomal stability); format: cell-based; details: HCT-116, 2a in combination with 5FU, compared to vehicle/750 nM 5FU/3 μM 2a
From the text: The effect of the compound 2a in combination with DNA damaging drug 5-Fluorouracil in colon adenocarcinoma cells was studied. […] Consequently, the major repair factor RAD-51 got diminished as compared to 5FU alone treated lane. The immunoblot results also depicted the downmodulation of cellular survival factor BCL-2 and subsequent upregulation of proapoptotic protein Bax (FIG. 8a). […] Moreover, the effect of the combinatorial treatment on chromosomal stability in HCT-116 cells by chromosome isolation and staining was studied.

MIAPaCa-2 cells [6] = assay: Matrigel invasion assay, MIAPaCa-2; format: cell-based, human; details: MIAPaCa-2, from 0.5 μM (0.5-5 μM), 36 h
Experimental: as §4
Now this particular derivative was further analysed for its ability to inhibit the molecular signatures of EMT. To this end, MIAPaCa-2 cells were treated with 0.5 μM, 1.5 μM, 3 μM and 5 μM of compound 2a for 36 h and were subjected to immunoblotting to study the expression of Snail-1, Twist-1, Vimentin and E-cadherin. […] To analyse more deeply the ability of this compound to affect migration/metastasis, MIAPaCa-2 cells were seeded onto Matrigel coated inserts and were treated with 0.5 μM, 1.5 μM, 3 μM and 5 μM of compound 2a. […] Formation of invadopodia and filopodia (migratory structures) constitutes the fundamental property of cells undergoing migration. […]

PC3 cells = assay: MTT cell viability assay, PC3; format: cell-based; details: Homo sapiens, PC-3, 48 h, read-out: Cytotoxicity (IC50) PC3, MTT, 48 h
Experimental: as §1

CCCCCc1cc(O[C@@H]2OC(CO)[C@@H](O)C(O)C2O)c2c(c1)OC(C)(C)[C@@H]1CCC(C)=C[C@@H]21 (stereo partly drawn) [Compound 2a, Δ^9-tetrahydrocannabinol-1-O-β-D-glucopyranoside]
IC50 [1]: 3.16 µM
gelatin degraded area (MIAPaCa-2 cells [2]): significant loss of gelatin degraded area
gelatin degradation (MDA-MB-231 cells [3]): significant decrease of gelatin degradation
migration in Matrigel coated invasion chamber (MDA-MB-231 cells [4]): periodical loss of migration
expression of γH2AX (immunocytochemistry) (γH2AX in HCT-116 cells): increased expression
IC50 (MDA-MB-231 cells [5]): 1.42 µM
chromosomal aberrations (HCT-116 cells): significantly increases chromosomal abbreations
cellular invasion, Matrigel (MIAPaCa-2 cells [6]): inhibition of cellular invasion
IC50 (PC3 cells): 7.17 µM
